# System: phenylquinone-induced writhing
# Experiment: Analgesia test in the phenylquinone-induced writhing test in mice
# Type: in vivo
# Conditions: male NMRI mice; 10 mg/kg intravenous, 10 minutes before phenylquinone i.p.; writhing counted 5–20 minutes after phenylquinone
# Experimental: The in-depth investigation for analgesic activity was carried out in the phenylquinone-induced writhing in mice (modified by I. C. Hendershot, J. Forsaith, J. Pharmacol. Exp. Ther. 125, 237–240 (1959)). Male NMRI mice weighing 25–30 g were used for this. Groups of 10 animals per substance dose received 0.3 ml/mouse of a 0.02% aqueous solution of phenylquinone (phenylbenzoquinone, Sigma, Deisenhofen; preparation of the solution with the addition of 5% ethanol and storage in a water bath at 45° C.) administered intraperitoneally 10 minutes after intravenous administration of the test substances. The animals were placed individually in observation cages. The number of pain-induced stretching movements (so-called writhing reactions=straightening of the body with stretching of the hind extremities) were counted by means of a push-button counter for 5–20 minutes after the administration of phenylquinone. Animals which received only physiological saline solution were also run as a control.
# The substances were tested in the standard dose of 10 mg/kg. The inhibition of the writhing reactions by a substance was calculated according to the following equation: […]
# The in-depth investigation for analgesic activity was carried out in the phenylquinone-induced writhing in mice as described above.
row,Structure (SMILES),Inhibition of the writhing reaction in %
1,"COc1ccc(COc2c(C(c3ccccc3)N(C)C)ccc3ccccc23)cc1 (stereo not drawn) [Example 37, {[1-(4-Methoxy-benzyloxy)-naphthalen-2-yl]-phenylmethyl}-dimethylamine]",40%
2,"COc1ccc(COc2ccc3ccccc3c2C(c2ccccc2)N(C)C)cc1 (stereo not drawn) [Example 38, {[2-(4-Methoxybenzyloxy)-naphthalen-1-yl]-phenylmethyl}-dimethylamine]",81%
3,"COc1ccc(C(=O)Oc2ccc3ccccc3c2C(c2ccccc2)N(C)C)cc1 (stereo not drawn) [Example 39, 4-Methoxybenzoic acid 1-(dimethylaminophenylmethyl)-naphthalen-2-yl ester]",21%
4,"CN(C)C(c1ccccc1)c1c(OC(=O)c2ccccc2Cl)ccc2ccccc12 (stereo not drawn) [Example 40, 2-Chlorobenzoic acid 1-(dimethylaminophenylmethyl)-naphthalen-2-yl ester]",48%
5,"Oc1ccc2ccccc2c1C(c1ccccc1)N1CCOCC1 (stereo not drawn) [Example 41, 1-(Morpholin-4-yl-phenylmethyl]-naphthalen-2-ol]",30%
6,"Oc1ccc2ccccc2c1C(c1ccccc1)N1CCCCC1 (stereo not drawn) [Example 42, 1-(Phenylpiperidin-1-yl-methyl)-naphthalen-2-ol]",92%
